Active and inactive are the calls of the source.
Legend:
Type in all cases: functional, organism-based
[1] = tested on: Influenza A virus; experiment: Antiviral activity against influenza A virus H1N1 assessed as inhibition of viral replication
[2] = tested on: Human alphaherpesvirus 2; experiment: Antiviral activity against HSV2 assessed as inhibition of viral replication
[3] = tested on: Influenza B virus; experiment: Antiviral activity against influenza B virus assessed as inhibition of viral replication
[4] = tested on: Influenza A virus; experiment: Antiviral activity against influenza A virus H5N1 assessed as inhibition of viral replication
[5] = tested on: Influenza A virus; experiment: Antiviral activity against influenza A virus H3N2 assessed as inhibition of viral replication
[6] = tested on: Human alphaherpesvirus 1; experiment: Antiviral activity against HSV1 assessed as inhibition of viral replication
[7] = tested on: Hepatitis B virus; experiment: Antiviral activity against HBV assessed as inhibition of viral DNA replication at 10 uM
[8] = tested on: Hepatitis C virus; experiment: Antiviral activity against HCV assessed as inhibition of viral replication; conditions: Hepacivirus hominis

Measured: Activity

C=C(C)[C@@H]1CC[C@]2(COC(=O)/C=C/c3ccc(OC)cc3)CC[C@]3(C)[C@H](CC[C@@H]4[C@@]5(C)CC[C@H](O)C(C)(C)[C@@H]5CC[C@]43C)[C@@H]12
active: [1]

C=C(C)[C@@H]1CC[C@]2(COCCCNCCC#N)CC[C@]3(C)[C@H](CC[C@@H]4[C@@]5(C)CC[C@H](OC(=O)c6cccnc6)C(C)(C)[C@@H]5CC[C@]43C)[C@@H]12
inactive: [2] | [3] | [4] | [5] | [6]

C=C(C)[C@@H]1CC[C@]2(C(=O)O)CC[C@]3(C)[C@H](CC[C@@H]4[C@@]5(C)CC[C@H](OC(=O)c6cccnc6)C(C)(C)[C@@H]5CC[C@]43C)[C@@H]12
inactive: [2] | [3] | [4] | [5] | [6]

C=C(C)[C@@H]1CC[C@]2(COC(=O)c3cccnc3)CC[C@]3(C)[C@H](CC[C@@H]4[C@@]5(C)CC[C@H](OC(=O)c6cccnc6)C(C)(C)[C@@H]5CC[C@]43C)[C@@H]12
inactive: [2] | [3] | [4] | [5] | [6]

C[C@H]1[C@H](C)CC[C@]2(C(=O)O)CC[C@]3(C)C(=CC[C@@H]4[C@@]5(C)CC/C(=N\OCCC#N)C(C)(C)[C@@H]5CC[C@]43C)[C@H]12
inactive: [2] | [3] | [4] | [5] | [6]

C#C[C@@H]1CC[C@]2(CO)CC[C@]3(C)[C@H](CC[C@@H]4[C@@]5(C)CC[C@H](O)C(C)(C)[C@@H]5CC[C@]43C)[C@@H]12
active: [8]
not listed: [1]
inactive: all other assays above

Source: ChEMBL document CHEMBL1177817, “Betulin and ursolic acid synthetic derivatives as inhibitors of Papilloma virus” (Bioorg Med Chem Lett, 2010)
